How the values were obtained:
[1] = Highest frequency of moderate liver toxicity observed during clinical trials, expressed as a percentage. [column '% BIOL' in source]; settings: human
[2] = Highest frequency of acute liver toxicity observed during clinical trials, expressed as a percentage. [column '% AIGUE' in source]; settings: human
[3] = Times to onset, minimal and maximal, observed in the indexed observations. [column 'DELAI' in source]; settings: human
[4] = human, serum
[5] = human, serum; remark: listed apart in the source
[6] = human
[7] = human; remark: listed apart in the source
[8] = human; remark: listed apart in the source
[9] = human, serum, 4383 h
[10] = human; remark: listed apart in the source
[11] = human; remark: listed apart in the source
[12] = human; remark: listed apart in the source
[13] = human; remark: listed apart in the source
[14] = human; remark: listed apart in the source
[15] = human; remark: listed apart in the source
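Throughout, for Hepatotoxicity (association with vascular disease): count of indexed literature references reporting vascular liver injury in humans, e.g. peliosis hepatitis, hepatic veno-occlusive disease or Budd-Chiari syndrome.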
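Throughout, for Hepatotoxicity (benign tumour): value is a count of indexed literature references citing a benign tumour confirmed by histopathology.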
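Throughout, for Hepatotoxicity (choleostasis): human cholestatic liver injury, shown by histopathology or by peak ALT or AST elevation over alkaline phosphatase ratio below 2, value counts indexed literature reports.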
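Throughout, for Hepatotoxicity (chronic liver disease): chronic liver injury confirmed by histopathology or persistently raised serum aminotransferase activity beyond 6 months, value given as the count of indexed literature references.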
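Throughout, for Hepatotoxicity (cirrhosis): value is a count of indexed literature references reporting cirrhosis confirmed by histopathology.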
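Throughout, for Hepatotoxicity (cytolytic): human cytolytic liver injury, shown by histopathology or by a ratio above 5 of peak ALT or AST elevation to alkaline phosphatase elevation, value counts indexed references.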
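Throughout, for Hepatotoxicity (granulomatous hepatitis): value is a count of indexed literature references reporting granulomatous liver disease confirmed by histopathology.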
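Throughout, for Hepatotoxicity (malignant tumour): malignant tumour confirmed by histopathology, value gives the count of indexed literature references reporting it.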
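Throughout, for Hepatotoxicity (severe hepatitis): human clinical data: severe hepatitis, meaning potentially life-threatening liver failure or clinically observed cases, the value counts how many indexed literature references report it.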
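Throughout, for Hepatotoxicity (steatosis): steatosis confirmed by histopathology, value is the count of indexed references.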

CCCCC(=O)N(Cc1ccc(-c2ccccc2-c2nnn[nH]2)cc1)[C@H](C(=O)O)C(C)C
Hepatotoxicity (moderate) [1]: 0% | Hepatotoxicity (acute) [2]: 0% | Hepatotoxicity (time to onset) [3]: 1 month - 4.5 months | Hepatotoxicity (moderate) [4]: 2 | Hepatotoxicity (acute) [5]: 3 | Hepatotoxicity (cytolytic) [6]: 1 | Hepatotoxicity (choleostasis) [7]: 1 | Hepatotoxicity (severe hepatitis) [8]: 1 | Hepatotoxicity (chronic liver disease) [9]: 0 | Hepatotoxicity (cirrhosis) [10]: 0 | Hepatotoxicity (granulomatous hepatitis) [11]: 0 | Hepatotoxicity (association with vascular disease) [12]: 0 | Hepatotoxicity (steatosis) [13]: 0 | Hepatotoxicity (malignant tumour) [14]: 0 | Hepatotoxicity (benign tumour) [15]: 0

COc1ccc(CCN(C)CCCC2(c3ccc(OC)c(OC)c3)S(=O)(=O)CCCS2(=O)=O)cc1OC
Hepatotoxicity (moderate) [1]: 6.7% | Hepatotoxicity (acute) [2]: 0% | Hepatotoxicity (time to onset) [3]: 1 month | Hepatotoxicity (moderate) [4]: 2 | Hepatotoxicity (acute) [5]: 1 | Hepatotoxicity (cytolytic) [6]: 0 | Hepatotoxicity (choleostasis) [7]: 1 | Hepatotoxicity (severe hepatitis) [8]: 0 | Hepatotoxicity (chronic liver disease) [9]: 0 | Hepatotoxicity (cirrhosis) [10]: 0 | Hepatotoxicity (granulomatous hepatitis) [11]: 0 | Hepatotoxicity (association with vascular disease) [12]: 0 | Hepatotoxicity (steatosis) [13]: 0 | Hepatotoxicity (malignant tumour) [14]: 0 | Hepatotoxicity (benign tumour) [15]: 0

CCN(CC)C(=O)C1(c2ccccc2)CC1CN (stereo not given)
Hepatotoxicity (moderate) [1]: 0% | Hepatotoxicity (acute) [2]: 0% | Hepatotoxicity (time to onset) [3]: 6 months | Hepatotoxicity (moderate) [4]: 0 | Hepatotoxicity (acute) [5]: 1 | Hepatotoxicity (cytolytic) [6]: 1 | Hepatotoxicity (choleostasis) [7]: 0 | Hepatotoxicity (severe hepatitis) [8]: 0 | Hepatotoxicity (chronic liver disease) [9]: 0 | Hepatotoxicity (cirrhosis) [10]: 0 | Hepatotoxicity (granulomatous hepatitis) [11]: 0 | Hepatotoxicity (association with vascular disease) [12]: 0 | Hepatotoxicity (steatosis) [13]: 0 | Hepatotoxicity (malignant tumour) [14]: 0 | Hepatotoxicity (benign tumour) [15]: 0

CCCCN/C(=C1/C=C(Cl)C=CC1=O)c1ccccc1Cl
Hepatotoxicity (moderate) [1]: 54.5% | Hepatotoxicity (acute) [2]: 0% | Hepatotoxicity (time to onset) [3]: 1 month | Hepatotoxicity (moderate) [4]: 1 | Hepatotoxicity (acute) [5]: 1 | Hepatotoxicity (cytolytic) [6]: 0 | Hepatotoxicity (choleostasis) [7]: 0 | Hepatotoxicity (severe hepatitis) [8]: 0 | Hepatotoxicity (chronic liver disease) [9]: 0 | Hepatotoxicity (cirrhosis) [10]: 0 | Hepatotoxicity (granulomatous hepatitis) [11]: 0 | Hepatotoxicity (association with vascular disease) [12]: 0 | Hepatotoxicity (steatosis) [13]: 0 | Hepatotoxicity (malignant tumour) [14]: 0 | Hepatotoxicity (benign tumour) [15]: 0

CC1(C)S[C@@H]2[C@H](NC(=O)[C@H](C(=O)O)c3ccsc3)C(=O)N2[C@H]1C(=O)O.O=C(O)[C@H]1/C(=C/CO)O[C@@H]2CC(=O)N21
Hepatotoxicity (moderate) [1]: 33% | Hepatotoxicity (acute) [2]: 0% | Hepatotoxicity (time to onset) [3]: 1 day - 6 weeks | Hepatotoxicity (moderate) [4]: 54 | Hepatotoxicity (acute) [5]: 2 | Hepatotoxicity (cytolytic) [6]: 0 | Hepatotoxicity (choleostasis) [7]: 2 | Hepatotoxicity (severe hepatitis) [8]: 1 | Hepatotoxicity (chronic liver disease) [9]: 0 | Hepatotoxicity (cirrhosis) [10]: 0 | Hepatotoxicity (granulomatous hepatitis) [11]: 0 | Hepatotoxicity (association with vascular disease) [12]: 0 | Hepatotoxicity (steatosis) [13]: 0 | Hepatotoxicity (malignant tumour) [14]: 0 | Hepatotoxicity (benign tumour) [15]: 0

C=CC1=C(C(=O)O)N2C(=O)[C@@H](NC(=O)/C(=N\O)c3csc(N)n3)[C@H]2SC1
Hepatotoxicity (moderate) [1]: 28.6% | Hepatotoxicity (acute) [2]: 0% | Hepatotoxicity (time to onset) [3]: 2 days | Hepatotoxicity (moderate) [4]: 43 | Hepatotoxicity (acute) [5]: 1 | Hepatotoxicity (cytolytic) [6]: 0 | Hepatotoxicity (choleostasis) [7]: 0 | Hepatotoxicity (severe hepatitis) [8]: 0 | Hepatotoxicity (chronic liver disease) [9]: 0 | Hepatotoxicity (cirrhosis) [10]: 0 | Hepatotoxicity (granulomatous hepatitis) [11]: 1 | Hepatotoxicity (association with vascular disease) [12]: 0 | Hepatotoxicity (steatosis) [13]: 0 | Hepatotoxicity (malignant tumour) [14]: 0 | Hepatotoxicity (benign tumour) [15]: 0

CN(C)CCCC1(c2ccc(F)cc2)OCc2cc(C#N)ccc21 (stereo not given) [CITALOPRAM]
Hepatotoxicity (moderate) [1]: 5.3% | Hepatotoxicity (acute) [2]: 0% | Hepatotoxicity (time to onset) [3]: 4 weeks - 2 months | Hepatotoxicity (moderate) [4]: 2 | Hepatotoxicity (cytolytic) [6]: 1 | Hepatotoxicity (choleostasis) [7]: 1 | Hepatotoxicity (severe hepatitis) [8]: 1 | Hepatotoxicity (chronic liver disease) [9]: 0 | Hepatotoxicity (cirrhosis) [10]: 0 | Hepatotoxicity (granulomatous hepatitis) [11]: 0 | Hepatotoxicity (association with vascular disease) [12]: 0 | Hepatotoxicity (steatosis) [13]: 0 | Hepatotoxicity (malignant tumour) [14]: 0 | Hepatotoxicity (benign tumour) [15]: 0

COc1cc2c(cc1OC)C(=O)C(CC1CCN(Cc3ccccc3)CC1)C2 (stereo not given) [DONEPEZIL]
Hepatotoxicity (moderate) [1]: 0% | Hepatotoxicity (acute) [2]: 0% | Hepatotoxicity (time to onset) [3]: 10 days - 12 days | Hepatotoxicity (moderate) [4]: 0 | Hepatotoxicity (acute) [5]: 2 | Hepatotoxicity (cytolytic) [6]: 0 | Hepatotoxicity (choleostasis) [7]: 2 | Hepatotoxicity (severe hepatitis) [8]: 0 | Hepatotoxicity (chronic liver disease) [9]: 0 | Hepatotoxicity (cirrhosis) [10]: 0 | Hepatotoxicity (granulomatous hepatitis) [11]: 0 | Hepatotoxicity (steatosis) [13]: 0 | Hepatotoxicity (malignant tumour) [14]: 0 | Hepatotoxicity (benign tumour) [15]: 0

O=C(NCC1CCCCN1)c1cc(OCC(F)(F)F)ccc1OCC(F)(F)F (stereo not given) [FLECAINIDE]
Hepatotoxicity (moderate) [1]: 36.7% | Hepatotoxicity (acute) [2]: 0% | Hepatotoxicity (time to onset) [3]: 2 days - 1 month | Hepatotoxicity (moderate) [4]: 3 | Hepatotoxicity (cytolytic) [6]: 1 | Hepatotoxicity (choleostasis) [7]: 2 | Hepatotoxicity (severe hepatitis) [8]: 0 | Hepatotoxicity (chronic liver disease) [9]: 0 | Hepatotoxicity (cirrhosis) [10]: 0 | Hepatotoxicity (granulomatous hepatitis) [11]: 0 | Hepatotoxicity (association with vascular disease) [12]: 0 | Hepatotoxicity (steatosis) [13]: 0 | Hepatotoxicity (malignant tumour) [14]: 0 | Hepatotoxicity (benign tumour) [15]: 0

CC(C)n1c(/C=C/C(O)CC(O)CC(=O)O)c(-c2ccc(F)cc2)c2ccccc21 (stereo not given) [FLUVASTATIN]
Hepatotoxicity (moderate) ([1]; Liver): 55% | Hepatotoxicity (acute) ([2]; Liver): 1.2% | Hepatotoxicity (time to onset) [3]: 8 months | Hepatotoxicity (moderate) [4]: 36 | Hepatotoxicity (cytolytic) ([6]; Liver): 3 | Hepatotoxicity (choleostasis) ([7]; Liver): 2 | Hepatotoxicity (severe hepatitis) ([8]; Liver): 0 | Hepatotoxicity (chronic liver disease) [9]: 0 | Hepatotoxicity (cirrhosis) [10]: 0 | Hepatotoxicity (granulomatous hepatitis) ([11]; Liver): 0 | Hepatotoxicity (association with vascular disease) [12]: 0 | Hepatotoxicity (steatosis) [13]: 0 | Hepatotoxicity (malignant tumour) [14]: 0 | Hepatotoxicity (benign tumour) [15]: 0

CC(C(=O)O)c1cccc(C(=O)c2ccccc2)c1 (stereo not given) [KETOPROFEN]
Hepatotoxicity (moderate) [1]: 2.5% | Hepatotoxicity (acute) [2]: 0% | Hepatotoxicity (time to onset) [3]: 2 days - 2 weeks | Hepatotoxicity (moderate) [4]: 3 | Hepatotoxicity (cytolytic) [6]: 3 | Hepatotoxicity (choleostasis) [7]: 5 | Hepatotoxicity (severe hepatitis) [8]: 2 | Hepatotoxicity (chronic liver disease) [9]: 0 | Hepatotoxicity (cirrhosis) [10]: 0 | Hepatotoxicity (granulomatous hepatitis) [11]: 0 | Hepatotoxicity (association with vascular disease) [12]: 0 | Hepatotoxicity (steatosis) [13]: 3 | Hepatotoxicity (malignant tumour) [14]: 0 | Hepatotoxicity (benign tumour) [15]: 0

COC(=O)C1=C(C)NC(C)=C(C(=O)OCCN(C)Cc2ccccc2)C1c1cccc([N+](=O)[O-])c1 (stereo not given) [NICARDIPINE]
Hepatotoxicity (moderate) [1]: 6.7% | Hepatotoxicity (acute) [2]: 0% | Hepatotoxicity (time to onset) [3]: 2 months | Hepatotoxicity (moderate) [4]: 6 | Hepatotoxicity (cytolytic) [6]: 0 | Hepatotoxicity (choleostasis) [7]: 0 | Hepatotoxicity (severe hepatitis) [8]: 0 | Hepatotoxicity (chronic liver disease) [9]: 0 | Hepatotoxicity (cirrhosis) [10]: 0 | Hepatotoxicity (granulomatous hepatitis) [11]: 0 | Hepatotoxicity (association with vascular disease) [12]: 0 | Hepatotoxicity (steatosis) [13]: 1 | Hepatotoxicity (malignant tumour) [14]: 0 | Hepatotoxicity (benign tumour) [15]: 0

O=C(O)CCc1nc(-c2ccccc2)c(-c2ccccc2)o1 [OXAPROZIN]
Hepatotoxicity (moderate) [1]: 20% | Hepatotoxicity (acute) [2]: 0.1% | Hepatotoxicity (time to onset) [3]: 2 weeks - 6 months | Hepatotoxicity (moderate) [4]: 4 | Hepatotoxicity (cytolytic) [6]: 2 | Hepatotoxicity (choleostasis) [7]: 0 | Hepatotoxicity (severe hepatitis) [8]: 1 | Hepatotoxicity (chronic liver disease) [9]: 0 | Hepatotoxicity (cirrhosis) [10]: 0 | Hepatotoxicity (granulomatous hepatitis) [11]: 0 | Hepatotoxicity (association with vascular disease) [12]: 0 | Hepatotoxicity (steatosis) [13]: 0 | Hepatotoxicity (malignant tumour) [14]: 0 | Hepatotoxicity (benign tumour) [15]: 0

Cc1nnc2n1-c1ccc(Cl)cc1C(c1ccccc1Cl)=NC2 [TRIAZOLAM]
Hepatotoxicity (moderate) ([1]; Liver): 0% | Hepatotoxicity (time to onset) [3]: 4 months | Hepatotoxicity (moderate) [4]: 1 | Hepatotoxicity (cytolytic) [6]: 1 | Hepatotoxicity (choleostasis) [7]: 2 | Hepatotoxicity (severe hepatitis) ([8]; Liver): 2 | Hepatotoxicity (chronic liver disease) [9]: 0 | Hepatotoxicity (cirrhosis) [10]: 0 | Hepatotoxicity (granulomatous hepatitis) [11]: 0 | Hepatotoxicity (association with vascular disease) [12]: 0 | Hepatotoxicity (steatosis) [13]: 0 | Hepatotoxicity (malignant tumour) [14]: 0 | Hepatotoxicity (benign tumour) [15]: 0

C[C@@H](c1ncncc1F)[C@](O)(Cn1cncn1)c1ccc(F)cc1F [VORICONAZOLE]
Hepatotoxicity (moderate) [1]: 9.5% | Hepatotoxicity (acute) [2]: 0% | Hepatotoxicity (time to onset) [3]: 1 day - 1 year | Hepatotoxicity (moderate) [4]: 10 | Hepatotoxicity (cytolytic) [6]: 1 | Hepatotoxicity (choleostasis) [7]: 1 | Hepatotoxicity (severe hepatitis) [8]: 1 | Hepatotoxicity (chronic liver disease) [9]: 0 | Hepatotoxicity (cirrhosis) [10]: 0 | Hepatotoxicity (granulomatous hepatitis) [11]: 0 | Hepatotoxicity (association with vascular disease) [12]: 0 | Hepatotoxicity (steatosis) [13]: 0 | Hepatotoxicity (malignant tumour) [14]: 0 | Hepatotoxicity (benign tumour) [15]: 0
